Source: patent US20260184707A1, “PHARMACEUTICAL COMPOUNDS FOR THE TREATMENT OF COMPLEMENT MEDIATED DISORDERS” (ALEXION PHARMACEUTICALS, INC., priority 2022, published 2026)

Each compound was assayed against T1, Human complement C1s enzyme (Homo sapiens, UniProt P09871) (assay: Human C1s enzyme assay). Conditions: human complement C1s enzyme 1.16 nM, substrate Z-L-Lys-SBzl, A405; read-out: IC50 (Stars).
T1 construct: purified from human serum, Complement Technology, Inc; purchased Complement Technology, Inc; host or cells: human serum (plasma-derived native protein)
T1 sequence (P09871 438-688 limits assumed): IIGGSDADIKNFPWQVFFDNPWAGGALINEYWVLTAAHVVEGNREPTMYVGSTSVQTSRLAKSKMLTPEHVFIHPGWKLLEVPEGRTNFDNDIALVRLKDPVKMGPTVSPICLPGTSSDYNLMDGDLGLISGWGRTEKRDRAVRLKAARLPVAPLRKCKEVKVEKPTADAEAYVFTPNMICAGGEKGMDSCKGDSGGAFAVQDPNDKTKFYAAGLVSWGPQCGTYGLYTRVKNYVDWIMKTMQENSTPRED
T1 sequence (P09871 16-437 partner limits assumed): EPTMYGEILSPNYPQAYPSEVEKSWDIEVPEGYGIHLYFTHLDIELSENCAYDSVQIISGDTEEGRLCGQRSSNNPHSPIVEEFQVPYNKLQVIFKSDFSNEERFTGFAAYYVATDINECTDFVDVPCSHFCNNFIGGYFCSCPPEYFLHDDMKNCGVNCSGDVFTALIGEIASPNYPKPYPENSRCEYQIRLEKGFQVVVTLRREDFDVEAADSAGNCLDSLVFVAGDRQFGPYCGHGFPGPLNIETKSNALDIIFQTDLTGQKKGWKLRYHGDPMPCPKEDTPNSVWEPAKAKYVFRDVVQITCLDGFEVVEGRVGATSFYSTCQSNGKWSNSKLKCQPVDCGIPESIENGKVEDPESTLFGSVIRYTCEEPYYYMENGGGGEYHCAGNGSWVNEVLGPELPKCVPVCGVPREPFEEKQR
Format: biochemical
Method: The […] values of the compounds of Table 1 were determined with the human C1s enzyme assay described below. Other standard complement assays are also available.
Human complement C1s enzyme (purified from human serum, Complement Technology, Inc.) at 1.16 nM final concentration was incubated with test compound at various concentrations for 5 min at room temperature in 50 mM Tris, 1 M NaCl, pH 7.5. A synthetic substrate Z-L-Lys-SBzl and DTNB (Ellman's reagent) were added to final concentrations of 100 μM each. Absorbance at 405 nm (A405) was recorded at 30 second intervals for […] using a microplate spectrophotometer. IC values were calculated by nonlinear regression of complement C1s reaction rates as a function of test compound concentration.
[…]; ND indicates a compound for which the IC50 value is not determined.
For `C[C@@H](Nc1ncc(-c2ccccn2)n(CC(=O)NCc2cc3cnccc3[nH]2)c1=O)c1ccc(-c2ccccc2F)cc1` [Compound 449, (R)-N-((1H-pyrrolo[3,2-c]pyridin-2-yl)methyl)-2-(3-((1-(2′-fluoro-[1,1′-biphenyl]-4-yl)ethyl)amino)-2-oxo-6-(pyridin-2-yl)pyrazin-1(2H)-yl)acetamide], the IC50 was < 100 nM. In the case of `O=C(Cn1c(-c2ccccc2)ncc(NCCCCc2ccccc2)c1=O)NCc1cc2cnccc2[nH]1` [Compound 2, N-((1H-pyrrolo[3,2-c]pyridin-2-yl)methyl)-2-(6-oxo-2-phen-yl-5-((4-phenylbutyl)amino)-pyrimidin-1(6H)-yl)acetamide], the IC50 is reported as < 100 nM. For `O=C(Cn1c(-c2ccccc2)ncc(NC(=O)c2ccc(-c3ccc(OC(F)(F)F)cc3)cc2)c1=O)NCc1cc2cnccc2[nH]1` [Compound 164, N-(1-(2-(((1H-pyrrolo[3,2-c]pyridin-2-yl)methyl)amino)-2-oxoethyl)-6-oxo-2-phenyl-1,6-dihydropyrimidin-5-yl)-4′-(trifluoromethoxy)-[1,1′-biphenyl]-4-carboxamide], the IC50 was < 100 nM. In the case of `O=C(Cn1c(-c2ccccc2)cnc(NCc2ccc(-c3ccccc3)cc2)c1=O)NCc1cc2cnccc2[nH]1` [Compound 60, N-((1H-pyrrolo[3,2-c]pyridin-2-yl)methyl)-2-(3-(([1,1′-biphenyl]-4-ylmethyl)amino)-2-oxo-6-phenylpyrazin-1(2H)-yl)acetamide], the IC50 is reported as < 100 nM. For `C[C@@H](Nc1cnc(-c2ccccc2)n(CC(=O)NCc2cc3cnccc3[nH]2)c1=O)c1ccc(Oc2ccccc2)cc1` [Compound 61, (R)—N-((1H-pyrrolo[3,2-c]pyridine-2-yl)methyl)-2-(6-oxo-5-((1-(4-phenoxyphenyl)ethyl)amino)-2-phenylpyrimidin-1(6H)-yl)acetamide], the IC50 was < 100 nM. For `C[C@H](NC(=O)Cn1c(-c2ccccc2)ncc(N[C@H](C)c2ccc3oc4ccccc4c3c2)c1=O)c1cc2cnccc2[nH]1` [Compound 239, N-((S)-1-(1H-pyrrolo[3,2-c]pyridin-2-yl)ethyl)-2-(5-(((R)-1-(dibenzo[b,d]furan-2-yl)-ethyl)amino)-6-oxo-2-phenyl-pyrimidin-1(6H)-yl)acetamide], the IC50 was > 1000 nM. For `COc1cccc(-c2nc(C(=O)Nc3cnc(-c4ccccc4)n(CC(=O)NCc4cc5cnccc5[nH]4)c3=O)co2)c1` [Compound 211, N-(1-(2-(((1H-pyrrolo[3,2-c]pyridine-2-yl)methyl)amino)-2-oxoethyl)-6-oxo-2-phenyl-1,6-dihydropyrimidin-5-yl)-2-(3-methoxyphenyl)oxazole-4-carboxamide], the IC50 was < 100 nM. `O=C(Cn1c(-c2ccccc2)ncc(NC(=O)c2ccc(-c3ccsc3)cc2)c1=O)NCc1cc2cnccc2[nH]1` [Compound 75, N-(1-(2-(((1H-pyrrolo[3,2-c]pyridin-2-yl)methyl)amino)-2-oxoethyl)-6-oxo-2-phenyl-1,6-dihydropyrimidin-5-yl)-4-(thiophen-3-yl)benzamide] was tested, and the IC50 was < 100 nM. In the case of `COc1ccc(-c2cc(C(=O)Nc3cnc(-c4ccccc4)n(CC(=O)NCc4cc5cnccc5[nH]4)c3=O)on2)cc1` [Compound 109, N-(1-(2-(((1H-pyrrolo[3,2-c]pyridin-2-yl)methyl)amino)-2-oxoethyl)-6-oxo-2-phenyl-1,6-dihydropyrimidin-5-yl)-3-(4-methoxyphenyl)isoxazole-5-carboxamide], the IC50 is reported as < 100 nM. With `C[C@@H]1CN(c2ncc(N[C@H](C)c3ccc4oc5ccccc5c4c3)c(=O)n2CC(=O)NCc2cc3cnccc3[nH]2)CCO1` [Compound 304, N-((1H-pyrrolo[3,2-c]pyridin-2-yl)methyl)-2-(5-(((R)-1-(dibenzo[b,d]furan-2-yl)ethyl)-amino)-2-((R)-2-methylmorph-olino)-6-oxopyrimidin-1(6H)-yl)acetamide] the IC50 was 100 to 1000 nM. In the case of `O=C(Cn1c(-c2ccccc2)cnc(NC(=O)c2ccc(-c3ccccc3)cc2)c1=O)NCc1cc2cnccc2[nH]1` [Compound 100, N-(4-(2-(((1H-pyrrolo[3,2-c]pyridin-2-yl)methyl)amino)-2-oxoethyl)-3-oxo-5-phenyl-3,4-dihydropyrazin-2-yl)-[1,1′-biphenyl]-4-carboxamide], the IC50 is reported as < 100 nM. `O=C(Cn1c(-c2ccccc2)ncc(NC(=O)c2csc(-c3ccccc3)c2)c1=O)NCc1cc2cnccc2[nH]1` [Compound 218, N-(1-(2-(((1H-pyrrolo[3,2-c]pyridin-2-yl)methyl)amino)-2-oxoethyl)-6-oxo-2-phenyl-1,6-dihydropyrimidin-5-yl)-5-phen-ylthiophene-3-carboxamide] was tested, and the IC50 was < 100 nM. With `C[C@H](Nc1cnc(-c2ccccc2)n(CC(=O)NCc2cc3cnccc3[nH]2)c1=O)c1ccc(-c2ccccc2)cc1` [Compound 276, (S)-N-((1H-pyrrolo[3,2-c]pyr-idin-2-yl)methyl)-2-(5-((1-([1,1′-biphenyl]-4-yl)ethyl)-amino)-6-oxo-2-phenylpyrimi-din-1(6H)-yl)acetamide] the IC50 was < 100 nM. With `Cc1ccc(-c2ncc(NCCCc3ccccc3)c(=O)n2CC(=O)NCc2cc3cnccc3[nH]2)c(F)c1` [Compound 437, N-((1H-pyrrolo[3,2-c]pyridin-2-yl)methyl)-2-(2-(2-fluoro-4-methylphenyl)-6-oxo-5-((3-phenylpropyl)amino)pyrimi-din-1(6H)-yl)acetamide] the IC50 was < 100 nM. `C[C@@H](Nc1nccn(CC(=O)NCc2cc3cnccc3[nH]2)c1=O)c1ccc2oc3ccccc3c2c1` [Compound 329, (R)-N-((1H-pyrrolo[3,2-c]pyridin-2-yl)methyl)-2-(3-((1-(dibenzo[b,d]furan-2-yl)ethyl)-amino)-2-oxopyrazin-1(2H)-yl)acetamide] showed an IC50 of 100 to 1000 nM. With `O=C(Cn1c(-c2ccccc2)ncc(NC(=O)c2cccc(-c3ccccc3)c2)c1=O)NCc1cc2cnccc2[nH]1` [Compound 165, N-(1-(2-(((1H-pyrrolo[3,2-c]pyridin-2-yl)methyl)amino)-2-oxoethyl)-6-oxo-2-phenyl-1,6-dihydropyrimidin-5-yl)-[1,1′-biphenyl]-3-carboxamide] the IC50 was < 100 nM. In the case of `O=C(Cn1c(N2CCCCC2)cnc(N[C@H](CO)c2ccc3oc4ccccc4c3c2)c1=O)NCc1cc2cnccc2[nH]1` [Compound 493, (S)—N-((1H-Pyrrolo[3,2-c]pyridine-2-yl)methyl)-2-(3-((1-(dibenzo[b,d]furan-2-yl)-2-hydroxyethyl)amino)-2-oxo-6-(piperidin-1-yl)pyrazin-1(2H)-yl)acetamide], the IC50 is reported as > 1000 nM. For `O=C(Cn1c(-c2ccccc2)ncc(NC(=O)c2ccc(-c3ccccc3)c(F)c2)c1=O)NCc1cc2cnccc2[nH]1` [Compound 240, N-(1-(2-(((1H-pyrrolo[3,2-c]pyridin-2-yl)methyl)amino)-2-oxoethyl)-6-oxo-2-phenyl-1,6-dihydropyrimidin-5-yl)-2-fluoro-[1,1′-biphenyl]-4-carboxamide], the IC50 was < 100 nM. For `C[C@@H](Nc1cnc(-c2ccc(OCCCCCCCN)cc2)n(CC(=O)NCc2cc3cnccc3[nH]2)c1=O)c1ccc2oc3ccccc3c2c1` [Compound 451, (R)—N-((1H-Pyrrolo[3,2-c]pyridine-2-yl)methyl)-2-(2-(4-((7-aminoheptyl)oxy)phenyl)-5-((1-(dibenzo[b,d]furan-2-yl)ethyl)amino)-6-oxopyrimidin-1(6H)-yl)acetamide], the IC50 was < 100 nM. For `C[C@H](NC(=O)Cn1c(-c2ccccc2)ncc(NCCCc2ccccc2)c1=O)c1cc2cnccc2[nH]1` [Compound 9, (S)—N-(1-(1H-pyrrolo[3,2-c]pyridin-2-yl)ethyl)-2-(6-oxo-2-phenyl-5-((3-phenylpropyl)amino)pyrimidin-1(6H)-yl)acetamide], the IC50 was > 1000 nM. In the case of `O=C(Cn1c(-c2ccccc2)ncc(NC(=O)c2cccc(-c3nccs3)c2)c1=O)NCc1cc2cnccc2[nH]1` [Compound 167, N-(1-(2-(((1H-pyrrolo[3,2-c]pyridine-2-yl)methyl)amino)-2-oxoethyl)-6-oxo-2-phenyl-1,6-dihydropyrimidin-5-yl)-3-(thiazol-2-yl)benzamide], the IC50 is reported as < 100 nM. In the case of `O=C(Cn1c(-c2ccccc2)ncc(NC(=O)c2ccc(-c3cccs3)cc2)c1=O)NCc1cc2cnccc2[nH]1` [Compound 56, N-(1-(2-(((1H-pyrrolo[3,2-c]pyridin-2-yl)methyl)amino)-2-oxoethyl)-6-oxo-2-phenyl-1,6-dihydropyrimidin-5-yl)-4-(thiophen-2-yl)benzamide], the IC50 is reported as < 100 nM. `O=C(Cn1c(-c2ccccc2)ncc(NC(=O)c2ccc(Oc3ccccc3)o2)c1=O)NCc1cc2cnccc2[nH]1` [Compound 57, N-(1-(2-(((1H-pyrrolo[3,2-c]pyridin-2-yl)methyl)amino)-2-oxoethyl)-6-oxo-2-phenyl-1,6-dihydropyrimidin-5-yl)-5-phen-oxyfuran-2-carboxamide] was tested, and the IC50 was < 100 nM.
